From PubChem BioAssay AID1963984 (Molecular Pharmacology Branch, DTP, NCI, 2024) come the findings set out here.

“And” between values parts separate entries of the source, which are not always exact repeats. Identical values can stand only once.
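Further: spheroids exposed to agents for seven days before readout; percent viability relative to DMSO vehicle control taken as 100%.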

The first experiment has as its system 233499-124-R-J3-PDC spheroids with HUVEC/MSC, viability. Kind of experiment: Anticancer human tumor 233499-124-R-J3-PDC patient-derived colon adenocarcinoma cell line growth inhibition [PI3K]. To be noted: compound 0.000316 µM; hits give low values. An excerpt: Combinatorial screen of targeted agents with the PI3K inhibitors inavolisib, alpelisib, duvelisib, and copanlisib in multi-cell type tumor spheroids
A high-throughput screen of multi-cell type tumor spheroids was designed to identify active combinations of targeted small molecules and PI3K pathway inhibitors. Complex spheroids include a stromal component modeled by human endothelial cells (HUVEC) and fibroblasts modeled by human mesenchymal stem cells (MSCs). The concentration ranges selected for each drug and investigational agent were based upon clinically achievable concentrations if the clinical Cmax of the agent was known.
Compounds. The drugs and investigational agents: inavolisib (NSC800729), alpelisib (NSC765974), duvelisib (NSC772469), copanlisib (NSC816437), ipatasertib (NSC767898), afuresertib (NSC778305), talazoparib (NSC767125), sapanisertib (NSC764658), selumetinib (NSC741078), tovorafenib (DAY101, NSC766906), vemurafenib (NSC761431), ravoxertinib (NSC781343), sotorasib (NSC818433), MRTX1133 (NSC 836407), abemaciclib (NSC 768073), palbociclib (NSC758247), venetoclax (NSC 766270), SY5609 (NSC837396), enzalutamide (NSC755605), and darolutamide (NSC825331), were obtained from the National Cancer Institute (NCI) Developmental Therapeutics Program Chemical Repository. The FDA-approved anticancer drug set is available from the NCI Developmental Therapeutics Program. […] The stock solutions were prepared in dimethyl sulfoxide (DMSO, Sigma-Aldrich, St. Louis, MO, cat. D2650) at 800-fold the tested concentration and stored at -70 degrees C prior to their use. All drugs and investigational agents were tested over a range starting from a high concentration at or near the clinical Cmax and decreasing in half-log increments. If the clinical Cmax for an agent had not been determined, the highest concentration tested was 10 microM.
Cell Culture. All cells were maintained in an incubator at 37 degrees C and 5% CO2 with 95% humidity. The PDC lines were cultured according to standard operating procedures established by the NCI PDMR (https://pdmr.cancer.gov/sops/default.htm). All PDCs were thawed and cultured in Matrigel-coated flasks prepared with a working solution of 1X Ham's F-12 nutrient mix, without supplementation (Invitrogen, Waltham, MA, cat. 11765054), 100 U/mL penicillin-streptomycin (Invitrogen, cat. 15140122), and 2.5% Matrigel (Corning Inc., Corning, NY, cat. 354248) for the first three passages. The 354836-022-R-J1-PDC, 475296-252-R-J1-PDC, and 997726-040-R-J2-PDC lines were cultured in 6A media, which includes advanced DMEM/F-12 (Thermo Fisher Scientific, cat. 12634028), 10 mM HEPES (Thermo Fisher Scientific, cat. 15630080), 1X GlutaMAX supplement (Thermo Fisher Scientific, cat. 35050061), 0.1 mg/mL primocin (InvivoGen, San Diego, CA, cat. ant-pm-2), 10% defined fetal bovine serum, heat inactivated (HyClone Laboratories Inc., Logan, UT, cat. SH30070.03HI), 50% L-WRN conditioned media (ATCC, cat. CRL-3276), 1.25 mM N-Acetyl-L-cysteine (Sigma-Aldrich, cat. A9165), 10 mM nicotinamide (Sigma-Aldrich, cat. N0636), 1X B-27 supplement (Thermo Fisher Scientific, cat. 17504044), 1X N-2 supplement (Thermo Fisher Scientific, cat. 17502048), and 10 microM Y-27632 dihydrochloride (Tocris Bioscience, Bristol, United Kingdom, cat. 1254). The 624824-186-R-J2-PDC line was cultured in 6C/Colon 1B media, which includes all 6A media components plus 50 ng/mL human EGF recombinant protein (Thermo Fisher Scientific, cat. PHG0311). […]
Regarding `CC(=O)c1c(C)c2cnc(Nc3ccc(N4CCNCC4)cn3)nc2n(C2CCCC2)c1=O`, the viability, T/C was 98.4% [middle of 4 runs].

In the case of `Cn1ncnc1[C@H]1c2n[nH]c(=O)c3cc(F)cc(c23)N[C@@H]1c1ccc(F)cc1`, the viability, T/C is 100% [middle of 4 runs].

The same experiment, now with this note: compound 0.001 µM; hits give low values.
As for `CC(=O)c1c(C)c2cnc(Nc3ccc(N4CCNCC4)cn3)nc2n(C2CCCC2)c1=O`, the viability, T/C is 98.5% [middle of 4 runs].

Turning to `CC(C)n1nc(-c2ccc3oc(N)nc3c2)c2c(N)ncnc21`, the viability, T/C was 94.8% [middle of 4 runs].

Regarding `Cn1ncnc1[C@H]1c2n[nH]c(=O)c3cc(F)cc(c23)N[C@@H]1c1ccc(F)cc1`, the viability, T/C was 99.6% [middle of 4 runs].

Staying with this experiment, now noted: compound 0.00316 µM; hits give low values.
On to `CC(=O)c1c(C)c2cnc(Nc3ccc(N4CCNCC4)cn3)nc2n(C2CCCC2)c1=O`, for which the viability, T/C was 85.1% [middle of 4 runs].

With `CC(C)n1nc(-c2ccc3oc(N)nc3c2)c2c(N)ncnc21`, the viability, T/C is 89.4% [middle of 4 runs].

Staying with this experiment, now noted: compound 0.00949 µM; hits give low values.
As to `Cn1cnc2c(F)c(Nc3ccc(Br)cc3Cl)c(C(=O)NOCCO)cc21`, the viability, T/C is 80.2% [middle of 4 runs].

Staying with this experiment, now noted: compound 0.01 µM; hits give low values.
Take `CC(=O)c1c(C)c2cnc(Nc3ccc(N4CCNCC4)cn3)nc2n(C2CCCC2)c1=O`: the viability, T/C was 88.2% [middle of 4 runs].

Regarding `CC(C)n1nc(-c2ccc3oc(N)nc3c2)c2c(N)ncnc21`, the viability, T/C is 85.9% [middle of 4 runs].

As for `CCN1CCN(Cc2ccc(Nc3ncc(F)c(-c4cc(F)c5nc(C)n(C(C)C)c5c4)n3)nc2)CC1`, the viability, T/C is 88.5% [middle of 4 runs].

For `COc1c(OCCCN2CCOCC2)ccc2c3n(c(=NC(=O)c4cnc(N)nc4)nc12)CCN3`, the viability, T/C is 84.7% [middle of 8 runs].

The experiment is the same for the next values; noted with them: compound 0.0316 µM; hits give low values.
For the compound `C#Cc1c(F)ccc2cc(O)cc(-c3ncc4c(N5CC6CCC(C5)N6)nc(OCC56CCCN5CC(F)C6)nc4c3F)c12` (stereo not given), the viability, T/C was 96% [middle of 4 runs].

Take `C=CC(=O)N1CCN(c2nc(=O)n(-c3c(C)ccnc3C(C)C)c3nc(-c4c(O)cccc4F)c(F)cc23)C(C)C1` (stereo not given): the viability, T/C was 91.7% [middle of 4 runs].

`CC(C)NCC(C(=O)N1CCN(c2ncnc3c2C(C)CC3O)CC1)c1ccc(Cl)cc1` (stereo not given): the viability, T/C is 97.7% [middle of 4 runs].

In the case of `CC(C)n1nc(-c2ccc3oc(N)nc3c2)c2c(N)ncnc21`, the viability, T/C was 82.9% [middle of 4 runs].

With `CC(Nc1ncnc2nc[nH]c12)c1cc2cccc(Cl)c2c(=O)n1-c1ccccc1` (stereo not given), the viability, T/C is 93.9% [middle of 8 runs].

On to `CC1(C)CCC(CN2CCN(c3ccc(C(=O)NS(=O)(=O)c4ccc(NCC5CCOCC5)c([N+](=O)[O-])c4)c(Oc4cnc5[nH]ccc5c4)c3)CC2)=C(c2ccc(Cl)cc2)C1`, for which the viability, T/C was 96.5% [middle of 4 runs].

For the compound `CC1(C)CCC(Nc2ncc(C(F)(F)F)c(-c3c[nH]c4c(P(C)(C)=O)c(C#N)ccc34)n2)CN1` (stereo not given), the viability, T/C is 66.7% [middle of 4 runs].

For `CCN1CCN(Cc2ccc(Nc3ncc(F)c(-c4cc(F)c5nc(C)n(C(C)C)c5c4)n3)nc2)CC1`, the viability, T/C was 85.6% [middle of 4 runs].

Consider `CNC(=O)c1ccc(N2C(=S)N(c3ccc(C#N)c(C(F)(F)F)c3)C(=O)C2(C)C)cc1F`, for which the viability, T/C was 93% [middle of 4 runs].

Turning to `COc1c(OCCCN2CCOCC2)ccc2c3n(c(=NC(=O)c4cnc(N)nc4)nc12)CCN3`, the viability, T/C was 93.6% [middle of 8 runs].

Consider `Cc1nc(NC(=O)N2CCCC2C(N)=O)sc1-c1ccnc(C(C)(C)C(F)(F)F)c1` (stereo not given), for which the viability, T/C was 79.1% [middle of 7 runs].

Turning to `Cn1ncc(Cl)c1-c1cc(C(=O)NC(CN)Cc2cccc(F)c2)sc1Cl` (stereo not given), the viability, T/C is 85.8% [middle of 4 runs].

On to `Cn1ncnc1[C@H]1c2n[nH]c(=O)c3cc(F)cc(c23)N[C@@H]1c1ccc(F)cc1`, for which the viability, T/C is 103% [middle of 4 runs].

The experiment is the same for the next values; noted with them: compound 0.0949 µM; hits give low values.
As to `Cn1cnc2c(F)c(Nc3ccc(Br)cc3Cl)c(C(=O)NOCCO)cc21`, the viability, T/C was 64.8% [middle of 4 runs].

Still in this experiment, the particulars now being: compound 0.1 µM; hits give low values.
Take `C#Cc1c(F)ccc2cc(O)cc(-c3ncc4c(N5CC6CCC(C5)N6)nc(OCC56CCCN5CC(F)C6)nc4c3F)c12` (stereo not given): the viability, T/C is 102% [middle of 4 runs].

As for `C=CC(=O)N1CCN(c2nc(=O)n(-c3c(C)ccnc3C(C)C)c3nc(-c4c(O)cccc4F)c(F)cc23)C(C)C1` (stereo not given), the viability, T/C was 99.3% [middle of 4 runs].

For `CC(=O)c1c(C)c2cnc(Nc3ccc(N4CCNCC4)cn3)nc2n(C2CCCC2)c1=O`, the viability, T/C is 91.2% [middle of 4 runs].

As for `CC(C)n1nc(-c2ccc3oc(N)nc3c2)c2c(N)ncnc21`, the viability, T/C is 58.7% [middle of 4 runs].

For `CC(Nc1ccc2c(c1)OCCn1cc(N3C(=O)OCC3C(F)F)nc1-2)C(N)=O` (stereo not given), the viability, T/C is 80.2% [middle of 8 runs].

For `CC(Nc1ncnc2nc[nH]c12)c1cc2cccc(Cl)c2c(=O)n1-c1ccccc1` (stereo not given), the viability, T/C is 97.2% [middle of 8 runs].

For `CC1(C)CCC(CN2CCN(c3ccc(C(=O)NS(=O)(=O)c4ccc(NCC5CCOCC5)c([N+](=O)[O-])c4)c(Oc4cnc5[nH]ccc5c4)c3)CC2)=C(c2ccc(Cl)cc2)C1`, the viability, T/C is 104% [middle of 4 runs].

For `CCCS(=O)(=O)Nc1ccc(F)c(C(=O)c2c[nH]c3ncc(-c4ccc(Cl)cc4)cc23)c1F`, the viability, T/C is 97.4% [middle of 4 runs].

On to `CCN1CCN(Cc2ccc(Nc3ncc(F)c(-c4cc(F)c5nc(C)n(C(C)C)c5c4)n3)nc2)CC1`, for which the viability, T/C is 93.8% [middle of 4 runs].

On to `CNC(=O)c1ccc(N2C(=S)N(c3ccc(C#N)c(C(F)(F)F)c3)C(=O)C2(C)C)cc1F`, for which the viability, T/C is 94.5% [middle of 4 runs].

In the case of `Cc1nc(NC(=O)N2CCCC2C(N)=O)sc1-c1ccnc(C(C)(C)C(F)(F)F)c1` (stereo not given), the viability, T/C is 88.6% [middle of 8 runs].

Consider `Cn1ncc(Cl)c1-c1cc(C(=O)NC(CN)Cc2cccc(F)c2)sc1Cl` (stereo not given), for which the viability, T/C is 102% (2×) and 85.4% and 93.9%.

Turning to `Cn1nccc1Nc1nccc(-c2ccn(C(CO)c3ccc(Cl)c(F)c3)c(=O)c2)n1` (stereo not given), the viability, T/C was 100% [middle of 4 runs].

As to `Cn1ncnc1[C@H]1c2n[nH]c(=O)c3cc(F)cc(c23)N[C@@H]1c1ccc(F)cc1`, the viability, T/C is 89% [middle of 4 runs].

Staying with this experiment, now noted: compound 0.3 µM; hits give low values.
Regarding `Cn1cnc2c(F)c(Nc3ccc(Br)cc3Cl)c(C(=O)NOCCO)cc21`, the viability, T/C was 50.3% [middle of 4 runs].

The same experiment, now with this note: compound 0.316 µM; hits give low values.
Turning to `C#Cc1c(F)ccc2cc(O)cc(-c3ncc4c(N5CC6CCC(C5)N6)nc(OCC56CCCN5CC(F)C6)nc4c3F)c12` (stereo not given), the viability, T/C was 95.6% [middle of 4 runs].

On to `CC(C)NCC(C(=O)N1CCN(c2ncnc3c2C(C)CC3O)CC1)c1ccc(Cl)cc1` (stereo not given), for which the viability, T/C was 94% [middle of 4 runs].

`CC(Nc1ncnc2nc[nH]c12)c1cc2cccc(Cl)c2c(=O)n1-c1ccccc1` (stereo not given): the viability, T/C was 95.8% [middle of 8 runs].

Consider `CC1(C)CCC(Nc2ncc(C(F)(F)F)c(-c3c[nH]c4c(P(C)(C)=O)c(C#N)ccc34)n2)CN1` (stereo not given), for which the viability, T/C was 46.9% [middle of 4 runs].

In general, viability, T/C refers to the ratio of treated to control.
